Assay results published in PubChem BioAssay (NCI).
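Test compounds were applied to cells in 96-well plates for 48 hours at 5 doses. TGI is the concentration that stops growth completely.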

Key:
Assay in all cases: inhibition of tumour cell growth, NCI panel, 48 h
A498 renal = tested on: A498 renal
BT-549 breast = tested on: BT-549 breast
CAKI-1 renal = tested on: CAKI-1 renal
CCRF-CEM leukemia = tested on: CCRF-CEM leukemia
COLO 205 colon = tested on: COLO 205 colon
DU-145 prostate = tested on: DU-145 prostate
HCC-2998 colon = tested on: HCC-2998 colon
HCT-116 colon = tested on: HCT-116 colon
HCT-15 colon = tested on: HCT-15 colon
HL-60(TB) leukemia = tested on: HL-60(TB) leukemia
HOP-62 NSCLC = tested on: HOP-62 NSCLC
HOP-92 NSCLC = tested on: HOP-92 NSCLC
HS 578T breast = tested on: HS 578T breast
HT29 colon = tested on: HT29 colon
IGROV1 ovarian = tested on: IGROV1 ovarian
K-562 leukemia = tested on: K-562 leukemia
KM12 colon = tested on: KM12 colon
LOX IMVI melanoma = tested on: LOX IMVI melanoma
M14 melanoma = tested on: M14 melanoma
MALME-3M melanoma = tested on: MALME-3M melanoma
MCF7 breast = tested on: MCF7 breast
MDA-MB-435 = tested on: MDA-MB-435
MDA-N = tested on: MDA-N
MOLT-4 leukemia = tested on: MOLT-4 leukemia
NCI-H226 lung = tested on: NCI-H226 lung
NCI-H23 lung = tested on: NCI-H23 lung
NCI-H460 lung = tested on: NCI-H460 lung
NCI/ADR-RES ovarian = tested on: NCI/ADR-RES ovarian
OVCAR-3 ovarian = tested on: OVCAR-3 ovarian
OVCAR-4 ovarian = tested on: OVCAR-4 ovarian
OVCAR-5 ovarian = tested on: OVCAR-5 ovarian
OVCAR-8 ovarian = tested on: OVCAR-8 ovarian
PC-3 prostate = tested on: PC-3 prostate
RPMI-8226 leukemia = tested on: RPMI-8226 leukemia
RXF 393 renal = tested on: RXF 393 renal
SF-295 CNS = tested on: SF-295 CNS
SK-MEL-2 melanoma = tested on: SK-MEL-2 melanoma
SK-MEL-28 melanoma = tested on: SK-MEL-28 melanoma
SK-MEL-5 melanoma = tested on: SK-MEL-5 melanoma
SK-OV-3 ovarian = tested on: SK-OV-3 ovarian
SN12C renal = tested on: SN12C renal
SNB-19 CNS = tested on: SNB-19 CNS
SNB-75 CNS = tested on: SNB-75 CNS
SR leukemia = tested on: SR leukemia
SW-620 colon = tested on: SW-620 colon
T-47D breast = tested on: T-47D breast
TK-10 renal = tested on: TK-10 renal
U251 CNS = tested on: U251 CNS
UACC-257 melanoma = tested on: UACC-257 melanoma
UACC-62 melanoma = tested on: UACC-62 melanoma
UO-31 renal = tested on: UO-31 renal
786-0 renal = tested on: 786-0 renal
A549 NSCLC = tested on: A549 NSCLC
ACHN renal = tested on: ACHN renal
EKVX NSCLC = tested on: EKVX NSCLC
MDA-MB-231 breast = tested on: MDA-MB-231 breast
SF-268 CNS = tested on: SF-268 CNS
SF-539 CNS = tested on: SF-539 CNS

Q: Which results are given for `C=CCOC1OC(CS(=O)(=O)O)C(OC(C)=O)C(OC(C)=O)C1OC(C)=O` (stereo unspecified)?
A: TGI (A498 renal): > 100 µM; TGI (BT-549 breast): > 100 µM; TGI (CAKI-1 renal): > 100 µM; TGI (CCRF-CEM leukemia): > 100 µM; TGI (COLO 205 colon): > 100 µM; TGI (DU-145 prostate): > 100 µM; TGI (HCC-2998 colon): > 100 µM; TGI (HCT-116 colon): > 100 µM; TGI (HCT-15 colon): > 100 µM; TGI (HL-60(TB) leukemia): > 100 µM; TGI (HOP-62 NSCLC): > 100 µM; TGI (HOP-92 NSCLC): > 100 µM; TGI (HS 578T breast): > 100 µM; TGI (HT29 colon): > 100 µM; TGI (IGROV1 ovarian): > 100 µM; TGI (K-562 leukemia): > 100 µM; TGI (KM12 colon): > 100 µM; TGI (LOX IMVI melanoma): > 100 µM; TGI (M14 melanoma): > 100 µM; TGI (MALME-3M melanoma): > 100 µM; TGI (MCF7 breast): > 100 µM; TGI (MDA-MB-435): > 100 µM; TGI (MDA-N): > 100 µM; TGI (MOLT-4 leukemia): > 100 µM; TGI (NCI-H226 lung): > 100 µM; TGI (NCI-H23 lung): > 100 µM; TGI (NCI-H460 lung): > 100 µM; TGI (NCI/ADR-RES ovarian): > 100 µM; TGI (OVCAR-3 ovarian): > 100 µM; TGI (OVCAR-4 ovarian): > 100 µM; TGI (OVCAR-5 ovarian): > 100 µM; TGI (OVCAR-8 ovarian): > 100 µM; TGI (PC-3 prostate): > 100 µM; TGI (RPMI-8226 leukemia): > 100 µM; TGI (RXF 393 renal): > 100 µM; TGI (SF-295 CNS): > 100 µM; TGI (SK-MEL-2 melanoma): > 100 µM; TGI (SK-MEL-28 melanoma): > 100 µM; TGI (SK-MEL-5 melanoma): > 100 µM; TGI (SK-OV-3 ovarian): > 100 µM; TGI (SN12C renal): > 100 µM; TGI (SNB-19 CNS): > 100 µM; TGI (SNB-75 CNS): > 100 µM; TGI (SR leukemia): > 100 µM; TGI (SW-620 colon): > 100 µM; TGI (T-47D breast): > 100 µM; TGI (TK-10 renal): > 100 µM; TGI (U251 CNS): > 100 µM; TGI (UACC-257 melanoma): > 100 µM; TGI (UACC-62 melanoma): > 100 µM; TGI (UO-31 renal): > 100 µM

Q: Which results are given for `Cc1ccc(N2C3=C(CC4=C2CC(C)(C)CC4=O)C(=O)CC(C)(C)C3)cc1`?
A: TGI (786-0 renal): > 100 µM; TGI (A498 renal): > 100 µM; TGI (A549 NSCLC): > 100 µM; TGI (ACHN renal): > 100 µM; TGI (BT-549 breast): > 100 µM; TGI (CAKI-1 renal): > 100 µM; TGI (CCRF-CEM leukemia): > 100 µM; TGI (COLO 205 colon): > 100 µM; TGI (DU-145 prostate): > 100 µM; TGI (EKVX NSCLC): > 100 µM; TGI (HCC-2998 colon): > 100 µM; TGI (HCT-116 colon): > 100 µM; TGI (HCT-15 colon): > 100 µM; TGI (HL-60(TB) leukemia): > 100 µM; TGI (HOP-62 NSCLC): > 100 µM; TGI (HS 578T breast): > 100 µM; TGI (HT29 colon): > 100 µM; TGI (IGROV1 ovarian): > 100 µM; TGI (K-562 leukemia): > 100 µM; TGI (KM12 colon): > 100 µM; TGI (LOX IMVI melanoma): > 100 µM; TGI (M14 melanoma): > 100 µM; TGI (MALME-3M melanoma): > 100 µM; TGI (MCF7 breast): > 100 µM; TGI (MDA-MB-231 breast): > 100 µM; TGI (MDA-MB-435): > 100 µM; TGI (MDA-N): > 100 µM; TGI (MOLT-4 leukemia): > 100 µM; TGI (NCI-H226 lung): > 100 µM; TGI (NCI-H23 lung): > 100 µM; TGI (NCI-H460 lung): > 100 µM; TGI (NCI/ADR-RES ovarian): > 100 µM; TGI (OVCAR-3 ovarian): > 100 µM; TGI (OVCAR-4 ovarian): > 100 µM; TGI (OVCAR-5 ovarian): > 100 µM; TGI (OVCAR-8 ovarian): > 100 µM; TGI (PC-3 prostate): > 100 µM; TGI (RPMI-8226 leukemia): > 100 µM; TGI (RXF 393 renal): > 100 µM; TGI (SF-268 CNS): > 100 µM; TGI (SF-295 CNS): > 100 µM; TGI (SF-539 CNS): > 100 µM; TGI (SK-MEL-28 melanoma): > 100 µM; TGI (SK-MEL-5 melanoma): > 100 µM; TGI (SK-OV-3 ovarian): > 100 µM; TGI (SN12C renal): > 100 µM; TGI (SNB-19 CNS): > 100 µM; TGI (SNB-75 CNS): 82.6 µM; TGI (SR leukemia): > 100 µM; TGI (SW-620 colon): > 100 µM; TGI (TK-10 renal): > 100 µM; TGI (U251 CNS): > 100 µM; TGI (UACC-257 melanoma): > 100 µM; TGI (UACC-62 melanoma): > 100 µM; TGI (UO-31 renal): > 100 µM
